pIC50: −log10 of the molar value.
Biological target: PHD2 (Homo sapiens (Human), UniProt Q9GZT9)
Experiment: PHD2 RF-MS (RapidFire LC-MS) hydroxylation assay
Type: biochemical
Experimental: In brief, cDNA encoding for the catalytic domain of tPHD2 (181-426 residues) was cloned into the pET28a (+)/pET24a (+) vectors (Novagen), to enable production of tPHD2 (residues 181-426) protein with/without an N-terminal His6-tag. The tPHD2 (residues 181-426) encoding construct was transformed into the Escherichia coli BL21 DE3 cell line; protein production was induced with 0.5 mM […] (3-5 hr at 28° C.). […] The protein was exchanged into 50 mM Tris-HCl buffer (pH 7.5) and concentrated to % 40 mg/ml.
Tris(hydroxymethyl)aminomethane was from Fisher. Ferrous ammonium sulfate (FAS), 2-oxoglutarate (2OG) and L-ascorbic acid were from Sigma Aldrich; solutions of these were prepared freshly each day. All inhibition assays were carried out in 384-well polypropylene plates (Greiner Bio-One). PHD2 assays were performed in assay buffer (50 mM Tris. Cl pH 7.5, 50 mM NaCl). […] The final assay concentration of DMSO was kept constant at 0.5%. PHD2 protein was prepared at a concentration of 300 nM in assay buffer and 25 μl dispensed across each 384-well assay plate. The PHD2 solution was allowed to equilibrate with the inhibitors for 15 minutes at room temperature; the enzyme reaction then initiated by dispense of 25 μl of substrate (20 μM FAS, 200 µM L-ascorbic acid, 10 μM CODD peptide and 20 μM 2OG in the assay buffer. Enzyme reactions were allowed to proceed for 20 minutes at room temperature and the reaction terminated by addition of 10% formic acid (5 μl). Assay plates were then transferred to a RapidFire RF360 sampling robot (Agilent) connected to an Agilent 6530 accurate mass quadrupole-time-of-flight (Q-TOF) mass spectrometer. Assay samples were aspirated under vacuum and loaded onto a C4 solid phase extraction (SPE) cartridge. After loading the C4 SPE was washed with 0.1% formic acid in water to remove non-volatile buffer salts and then peptide was eluted from the SPE with 85% acetonitrile, 15% water containing 0.1% formic acid onto the mass spectrometer. Peptide charge states were monitored in positive mode. Ion chromatogram data were extracted for the +2 charge state and peak area data integrated using RapidFire Integrator software (Agilent). % conversion of the CODD peptide substrate to the +16 hydroxylated peptide was calculated using the equation: % conversion=100×hydroxylated/(hydroxylated+non-hydroxylated peptide). IC50 values were determined from non-linear regression plots using GraphPad prism.
Example 158—Structure activity relationship (SAR) studies for PHD inhibition SAR studies for PHD inhibition were carried out on the compounds of the invention. Compounds were screened against PHD2 using the RF-MS hydroxylation assay.

Chain of PHD2 (Q9GZT9 181-426): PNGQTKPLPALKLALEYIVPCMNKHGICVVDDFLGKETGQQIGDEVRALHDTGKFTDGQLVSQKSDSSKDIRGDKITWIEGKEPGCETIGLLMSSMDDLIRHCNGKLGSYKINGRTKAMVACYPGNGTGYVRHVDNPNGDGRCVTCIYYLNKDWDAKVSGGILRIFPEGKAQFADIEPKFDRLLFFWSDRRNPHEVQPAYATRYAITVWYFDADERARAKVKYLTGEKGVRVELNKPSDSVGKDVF

| SMILES | pIC50 |
| --- | --- |
| COc1cc(C(=O)NCc2ccc(-c3ccccc3)cc2)cnc1-n1cc(C#N)cn1 [Compound 124, N-([1,1′-biphenyl]-4-ylmethyl)-6-(4-cyano-1H-pyrazol-1-yl)-5-methoxynicotinamide] | 6.00 to 9.00 |
| O=C(O)c1cnn(-c2ncc(C(=O)NCC3CCC(C(F)(F)F)CC3)cc2O)c1 (stereo not shown) [Compound 129, 1-(3-hydroxy-5-(((4-(trifluoromethyl)cyclohexyl)methyl)carbamoyl)pyridin-2-yl)-1H-pyrazole-4-carboxylic acid] | 6.00 to 9.00 |
| O=C(NCc1ccc(-c2ccccc2)cc1)c1cnc(-n2cccn2)nc1 [Compound 20, N-([1,1′-Biphenyl]-4-ylmethyl)-2-(1H-pyrazol-1-yl)pyrimidine-5-carboxamide] | < 5.00 |
| O=C(O)c1ccnc(-n2cc(C(=O)NCc3ccc(-c4ccccc4)cc3)cn2)c1 [Compound 103, 2-(4-(([1,1′-Biphenyl]-4-ylmethyl)carbamoyl)-1H-pyrazol-1-yl) isonicotinic acid] | < 5.00 |
| O=C(NCc1ccc(-c2ccccc2)cc1)c1cnn(-c2cc(O)c(C(=O)O)cn2)c1 [Compound 96, 6-(4-(([1,1′-Biphenyl]-4-ylmethyl)carbamoyl)-1H-pyrazol-1-yl)-4-hydroxynicotinic acid] | 5.00 to 6.00 |
| O=C(NCc1ccc(-c2ccccc2)cc1)c1cnn(-c2cc(O)ccn2)c1 [Compound 99, N-([1,1′-Biphenyl]-4-ylmethyl)-1-(4-hydroxypyridin-2-yl)-1H-pyrazole-4-carboxamide] | 5.00 to 6.00 |
| Cc1cc2nc(C)c3c(O)c(C(=O)NCc4ccc(-c5cccc(N6CCOCC6)c5)nc4)cnc3n2n1 [Compound 176, 6-hydroxy-2,5-dimethyl-N-((6-(3-morpholinophenyl)pyridin-3-yl)methyl) pyrazolo[1,5-a]pyrido[3,2-e]pyrimidine-7-carboxamide] | 5.00 to 6.00 |
| O=C(O)c1ccc(-n2cc(C(=O)NCc3ccc(-c4ccccc4)cc3)cn2)nc1 [Compound 101, 6-(4-(([1,1′-Biphenyl]-4-ylmethyl)carbamoyl)-1H-pyrazol-1-yl) nicotinic acid] | 5.00 to 6.00 |
| O=C(NCC1CCCCC1)c1cnc(-n2cccn2)cc1O [Compound 44, N-(Cyclohexylmethyl)-4-hydroxy-6-(1H-pyrazol-1-yl) nicotinamide] | < 5.00 |
| N#Cc1cnc(-n2cc(C(=O)NCc3ccc(-c4ccccc4)cc3)cn2)cc1O [Compound 95, N-([1,1′-Biphenyl]-4-ylmethyl)-1-(5-cyano-4-hydroxypyridin-2-yl)-1H-pyrazole-4-carboxamide] | 6.00 to 9.00 |
| COc1cc(-n2cc(C(=O)NCc3ccc(-c4ccccc4)cc3)cn2)ncc1C#N [Compound 93, N-([1,1′-Biphenyl]-4-ylmethyl)-1-(5-cyano-4-methoxypyridin-2-yl)-1H-pyrazole-4-carboxamide] | < 5.00 |
| O=C(NCc1cccc(-c2ccccc2)c1)c1cnc(-n2cccn2)c(O)c1 [Compound 76, N-([1,1′-Biphenyl]-3-ylmethyl)-5-hydroxy-6-(1H-pyrazol-1-yl) nicotinamide] | 5.00 to 6.00 |
| O=C(O)c1cnn(-c2cc(O)c(C(=O)NCc3ccc(-c4ccccc4)nc3)cn2)c1 [Compound 91, 1-(4-Hydroxy-5-(((6-phenylpyridin-3-yl)methyl)carbamoyl)pyridin-2-yl)-1H-pyrazole-4-carboxylic acid] | 6.00 to 9.00 |
| O=C(NCc1cccc(-c2ccccc2)c1)c1cnn(-c2cc(O)ccn2)c1 [Compound 109, N-([1,1′-Biphenyl]-3-ylmethyl)-1-(4-hydroxypyridin-2-yl)-1H-pyrazole-4-carboxamide] | 5.00 to 6.00 |
| O=C(Nc1cccc(-c2ccccc2)c1)c1cnc(-n2cccn2)cc1O [Compound 66, N-([1,1′-Biphenyl]-3-yl)-4-hydroxy-6-(1H-pyrazol-1-yl) nicotinamide] | 6.00 to 9.00 |
| O=C(O)c1cnn(-c2cc(O)c(C(=O)NCc3ccc(C(F)(F)F)cc3)cn2)c1 [Compound 90, 1-(4-Hydroxy-5-((4-(trifluoromethyl)benzyl)carbamoyl)pyridin-2-yl)-1H-pyrazole-4-carboxylic acid] | 6.00 to 9.00 |
| N#Cc1cnn(-c2cc(O)c(C(=O)NCc3ccc(C(F)(F)F)cc3)cn2)c1 [Compound 89, 6-(4-Cyano-1H-pyrazol-1-yl)-4-hydroxy-N-(4-(trifluoromethyl)benzyl) nicotinamide] | 6.00 to 9.00 |

| SMILES | pIC50 |
| --- | --- |
| N#Cc1cnn(-c2cc(O)c(C(=O)NCc3ccc(-c4ccccc4)cc3)cn2)c1 [Compound 85, N-([1,1′-Biphenyl]-4-ylmethyl)-6-(4-cyano-1H-pyrazol-1-yl)-4-hydroxynicotinamide] | 6.00 to 9.00 |
| N#Cc1cnn(-c2ncc(C(=O)NCc3ccc(-c4ccccc4)cc3)cc2O)c1 [Compound 125, N-([1,1′-biphenyl]-4-ylmethyl)-6-(4-cyano-1H-pyrazol-1-yl)-5-hydroxynicotinamide] | 6.00 to 9.00 |
| O=C(O)c1cnn(-c2cc(O)c(C(=O)NCc3ccc(-c4ccccc4)cc3)cn2)c1 [Compound 84, 1-(5-(([1,1′-Biphenyl]-4-ylmethyl)carbamoyl)-4-hydroxypyridin-2-yl)-1H-pyrazole-4-carboxylic acid] | 6.00 to 9.00 |
| O=C(NCc1ccc(-c2ccccc2)nc1)c1cnc(-n2cccn2)cc1O [Compound 69, 4-Hydroxy-N-((6-phenylpyridin-3-yl)methyl)-6-(1H-pyrazol-1-yl) nicotinamide] | 6.00 to 9.00 |
| O=C(NCc1ccc(C(F)(F)F)cc1)c1cnc(-n2cccn2)cc1O [Compound 64, 4-Hydroxy-6-(1H-pyrazol-1-yl)-N-(4-(trifluoromethyl)benzyl) nicotinamide] | 6.00 to 9.00 |
| O=C(NCc1ccc(-c2ccccc2)cc1)c1cnc(-n2cccn2)c(O)c1 [Compound 75, N-([1,1′-Biphenyl]-4-ylmethyl)-5-hydroxy-6-(1H-pyrazol-1-yl) nicotinamide] | 5.00 to 6.00 |
| O=C(NCc1ccc(OC(F)(F)F)cc1)c1cnc(-n2cccn2)cc1O [Compound 67, 4-Hydroxy-6-(1H-pyrazol-1-yl)-N-(4-(trifluoromethyloxy)benzyl) nicotinamide] | 6.00 to 9.00 |
| COc1ccc([C@H](C)NC(=O)c2cnc3c(c(C)nc4cc(C)nn43)c2O)cc1 [Compound 180, (S)-6-hydroxy-N-(1-(4-methoxyphenyl)ethyl)-2,5-dimethylpyrazolo[1,5-a]pyrido[3,2-e]pyrimidine-7-carboxamide] | 6.00 to 9.00 |
| O=C(Nc1ccc(-c2ccccc2)cc1)c1cnn(-c2cc(O)ccn2)c1 [Compound 108, N-([1,1′-Biphenyl]-4-yl)-1-(4-hydroxypyridin-2-yl)-1H-pyrazole-4-carboxamide] | < 5.00 |
| O=C(O)c1cnn(-c2ccc(C(=O)NCc3ccccc3)cn2)c1 [Compound 32, 1-(5-(Benzylcarbamoyl)pyridin-2-yl)-1H-pyrazole-4-carboxylic acid] | 5.00 to 6.00 |
| O=C(Nc1ccc(-c2ccccc2)cc1)c1cnc(-n2cccn2)cc1O [Compound 42, N-([1,1′-Biphenyl]-4-yl)-4-hydroxy-6-(1H-pyrazol-1-yl) nicotinamide] | 6.00 to 9.00 |
| O=C(O)c1cnn(-c2ccc(C(=O)NCc3ccc(-c4ccccc4)cc3)cn2)c1 [Compound 31, 1-(5-(([1,1′-Biphenyl]-4-ylmethyl)carbamoyl)pyridine-2-yl)-1H-pyrazole-4-carboxylic acid] | 6.00 to 9.00 |
| N#Cc1ccc(-n2cc(C(=O)NCc3ccc(-c4ccccc4)cc3)cn2)nc1 [Compound 97, N-([1,1′-Biphenyl]-4-ylmethyl)-1-(5-cyanopyridin-2-yl)-1H-pyrazole-4-carboxamide] | < 5.00 |
| O=C(NCc1ccc(-c2ccccc2)cc1)c1ccc(-n2cccn2)nc1 [Compound 22, N-([1,1′-Biphenyl]-4-ylmethyl)-6-(1H-pyrazol-1-yl) nicotinamide] | < 5.00 |
| O=C(NCc1ccc(-c2ccccc2)cc1)c1cnc(-n2cccn2)cc1O [Compound 41, N-([1,1′-Biphenyl]-4-ylmethyl)-4-hydroxy-6-(1H-pyrazol-1-yl) nicotinamide] | 6.00 to 9.00 |
| O=C(NCc1cccc(C(F)(F)F)c1)c1cnc(-n2cccn2)cc1O [Compound 43, 4-Hydroxy-6-(1H-pyrazol-1-yl)-N-(3-(trifluoromethyl)benzyl) nicotinamide] | 5.00 to 6.00 |
| O=C(NCc1cccc(-c2ccccc2)c1)c1cnc(-n2cccn2)cc1O [Compound 65, N-([1,1′-Biphenyl]-3-ylmethyl)-4-hydroxy-6-(1H-pyrazol-1-yl) nicotinamide] | 6.00 to 9.00 |
